Measurements: article doi:10.1101/2023.03.31.535138v1 (biorxiv, 2023)

Molecular target: T1, NudC (Escherichia coli, UniProt P32664)
T1 sequence (P32664 1-257): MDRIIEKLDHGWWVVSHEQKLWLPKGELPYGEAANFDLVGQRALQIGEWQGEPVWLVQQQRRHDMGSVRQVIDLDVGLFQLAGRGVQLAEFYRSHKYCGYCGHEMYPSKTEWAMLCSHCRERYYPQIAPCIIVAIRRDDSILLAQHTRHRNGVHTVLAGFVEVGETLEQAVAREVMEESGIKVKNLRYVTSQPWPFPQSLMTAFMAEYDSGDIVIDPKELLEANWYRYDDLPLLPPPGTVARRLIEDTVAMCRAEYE
Experiment: in vitro de-capping of NAD-RNA, gel assay, NudC activity plotted against ppGpp
Format: biochemical

With `Nc1nc2c(ncn2[C@@H]2O[C@H](COP(=O)(O)OP(=O)(O)O)[C@@H](OP(=O)(O)OP(=O)(O)O)[C@H]2O)c(=O)[nH]1` [ppGpp] the Ki was ~70 µM.
